These are literature values, as cited in patent publication EP3913370A1, “METHOD FOR DIAGNOSING CARCINOMAS USING IRGD AS A TUMOR MARKER BOOSTER” (Piiper, Albrecht, priority 2020, dated 2021).

For series [1] the following is noted: in vivo.
For series [2] the following is noted: human, in vivo.

For the molecule `N=C(N)NCCC[C@@H]1NC(=O)[C@@H](N)CSSC[C@@H](C(=O)O)NC(=O)[C@H](CC(=O)O)NC(=O)[C@@H]2CCCN2C(=O)CNC(=O)[C@H](CCCCN)NC(=O)[C@H](CC(=O)O)NC(=O)CNC1=O` [iRGD, CRGDKGPDC (SEQ ID No. 1)], in series [1], the “toxicity associated with administration” value is recorded as “no toxicity”. Besides, the toxicity in humans result in series [2] is recorded as “low toxicity”.
